{"source": "ChEMBL document CHEMBL3046662", "about": "“Hypoglycemic and insulin mimetic impact of catechin isolated from Cassia fistula: a substantiate in silico approach through docking analysis” (Med Chem Res, 2012)", "tested_on": "Rattus norvegicus", "assay": "Hypoglycemic activity in Rattus norvegicus albino Wistar (rat) streptozotocin-induced diabetic model assessed as reduction of plasma glucose level at 20 mg/kg, po qd for 60 days measured up to 180 min by oral glucose tolerance test", "format": "functional, organism-based", "parameters": "dose 20 mg/kg", "note": "Calls of active or inactive are those of the source. The calls are words filed in the database; no cut-off is given here.", "data": [{"smiles": "Oc1cc(O)c2c(c1)OC(c1ccc(O)c(O)c1)C(O)C2", "note": "(stereo unspecified)", "values": [{"measurement": "Activity", "result": "Active"}]}]}
